Assay [1] concerns MATIN. Kind of assay: Pre-emergence action against MATIN. The format is in vivo, Matricaria inodora. The note with it: Dosage 320 g/ha, pre-emergence. In a few lines:
(§1)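 Seeds sown in sandy loam in wood-fiber pots and covered with soil. Greenhouse growth; visual damage scored after 3 weeks versus untreated controls (100% = dead, 0% = like control).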

Assay [2] has as its system ECHCG. In words: Post-emergence action against ECHCG. The format is in vivo, Echinochloa crus-galli. The following applies: post-emergence, dosage 80 g/ha, visual assessment about 3 weeks after treatment vs untreated controls. In a few lines:
(§2)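 Weeds grown in sandy loam in greenhouse, treated at one-leaf stage (2–3 weeks after sowing) with WP or EC formulations sprayed as aqueous suspension/emulsion at 600 to […] water with 0.2% wetting agent. Visual rating after about 3 weeks versus untreated controls, as % herbicidal action (100% = plants dead, 0% = like control).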

In another assay the test system is LOLMU. In words: Pre-emergence action against LOLMU. Format: in vivo, Lolium multiflorum. The note with it: dosage 320 g/ha, scored visually after 3 weeks vs untreated controls. The text has this:
Seeds of monocotyledonous and dicotyledonous weed plants and crop plants are laid out in sandy loam soil in wood-fiber pots and covered with soil. The compounds of the invention, formulated in the form of wettable powders (WP) or as emulsion concentrates (EC), are then applied to the surface of the covering soil in the form of an aqueous suspension or emulsion at a water application rate equating to […], with addition of 0.2% wetting agent. After the treatment, the pots are placed in a greenhouse and kept under good growth conditions for the trial plants. The damage to the test plants is scored visually after a test period of 3 weeks by comparison with untreated controls (herbicidal activity in percent (%): 100% activity=the plants have died, 0% activity=like control plants).

Assay [3] has as its system VERPE. In words: Post-emergence action against VERPE. The format is in vivo, Veronica persica. The note with it: dosage 80 g/ha. An outline of the steps: as §2
For the next assay, the system named is ALOMY. Kind of assay: Pre-emergence action against ALOMY. Format: in vivo, Alopecurus myosuroides. The following applies: dosage 320 g/ha; pre-emergence; scored visually after 3 weeks vs untreated controls; 100% = plants have died, 0% = like control plants. An outline of the steps: as §1
The next assay relates to PHBPU. In words: Post-emergence action against PHBPU. Format: in vivo, Pharbitis purpurea. The following applies: post-emergence, dosage 80 g/ha. In a few lines: as §2
Assay [4] concerns ABUTH. In words: Pre-emergence action against ABUTH. The format is in vivo, Abutilon theophrasti. The note with it: pre-emergence, dosage 320 g/ha, scored visually after 3 weeks vs untreated controls. An outline of the steps: as §1
Assay [5] deals with SETVI. Kind of assay: Pre-emergence action against SETVI. Format: in vivo, Setaria viridis. The note with it: pre-emergence, dosage 320 g/ha, scored visually after 3 weeks vs untreated controls. An outline of the steps:
as §1

Assay [6] relates to VIOTR. Kind of assay: Pre-emergence action against VIOTR. Format: in vivo, Viola tricolor. The note with it: Dosage 320 g/ha, pre-emergence. An outline of the steps:
as §1

The test system of assay [7] is AMARE. In words: Post-emergence action against AMARE. The following applies: post-emergence, dosage 80 g/ha, visual assessment about 3 weeks after treatment vs untreated controls. Format: in vivo, Amaranthus retroflexus. In a few lines:
as §2

Assay [8] relates to AMARE. In words: Pre-emergence action against AMARE. Format: in vivo, Amaranthus retroflexus. The note with it: pre-emergence, dosage 320 g/ha, scored visually after 3 weeks vs untreated controls. An outline of the steps: as §1
For assay [9], the system named is VERPE. In words: Pre-emergence action against VERPE. The note with it: Dosage 320 g/ha, pre-emergence. The format is in vivo, Veronica persica. In a few lines: as §1
The subject of assay [10] is POLCO. Kind of assay: Post-emergence action against POLCO. The format is in vivo, Polygonum convolvulus. The following applies: post-emergence, dosage 80 g/ha. An outline of the steps: as §2
Assay [11] deals with CYPES. In words: Pre-emergence action against CYPES. Format: in vivo, Cyperus esculentus. The following applies: pre-emergence, dosage 320 g/ha, scored visually after 3 weeks vs untreated controls. In a few lines: as §1
The test system of assay [12] is CYPES. In words: Post-emergence action against CYPES. The format is in vivo, Cyperus esculentus. The following applies: post-emergence, dosage 80 g/ha, visual assessment about 3 weeks after treatment vs untreated controls. An outline of the steps: as §2
The subject of assay [13] is STEME. In words: Post-emergence action against STEME. The format is in vivo, Stellaria media. The note with it: post-emergence, dosage 80 g/ha. An outline of the steps: as §2
The test system of assay [14] is MATIN. Kind of assay: Post-emergence action against MATIN. The format is in vivo, Matricaria inodora. The following applies: post-emergence, dosage 80 g/ha, visual assessment about 3 weeks after treatment vs untreated controls. In a few lines: as §2
For assay [15], the system named is VIOTR. Kind of assay: Post-emergence action against VIOTR. Format: in vivo, Viola tricolor. The note with it: post-emergence, dosage 80 g/ha. An outline of the steps: as §2
Assay [16] deals with ECHCG. Kind of assay: Pre-emergence action against ECHCG. Format: in vivo, Echinochloa crus-galli. The note with it: pre-emergence, dosage 320 g/ha, scored visually after 3 weeks vs untreated controls. In a few lines: as §1
Assay [17] deals with SETVI. Kind of assay: Post-emergence action against SETVI. Format: in vivo, Setaria viridis. The following applies: post-emergence, dosage 80 g/ha, visual assessment about 3 weeks after treatment vs untreated controls. An outline of the steps:
as §2

Assay [18] has as its system ABUTH. In words: Post-emergence action against ABUTH. The format is in vivo, Abutilon theophrasti. The note with it: post-emergence, dosage 80 g/ha, visual assessment about 3 weeks after treatment vs untreated controls. In a few lines:
as §2

Assay [19] has as its system STEME. In words: Pre-emergence action against STEME. The note with it: Dosage 320 g/ha, pre-emergence. The format is in vivo, Stellaria media. An outline of the steps: as §1
Assay [20] relates to POLCO. In words: Pre-emergence action against POLCO. The format is in vivo, Polygonum convolvulus. The following applies: Dosage 320 g/ha, pre-emergence. An outline of the steps: as §1
The subject of the next assay is AVEFA. Kind of assay: Pre-emergence action against AVEFA. Format: in vivo, Avena fatua. The following applies: dosage 320 g/ha, scored visually after 3 weeks vs untreated controls. An outline of the steps: as §1

As for `CCn1nnnc1NC(=O)c1ccc(C(F)(F)F)c(C(C)=O)c1OC` [2-48], the “Pre-emergence action against MATIN” value with MATIN [1] was determined as 100%. The “Post-emergence action against ECHCG (herbicidal action in percent)” value with ECHCG [2] is reported as 90%. The “Pre-emergence action against LOLMU (herbicidal activity)” value with LOLMU is given as 80%. In addition, the “Post-emergence action against VERPE” value with VERPE [3] worked out at 80. The “Pre-emergence action against ALOMY (herbicidal activity in percent)” value in the assay with ALOMY is 90%. Moreover, in the assay on PHBPU, the “Post-emergence action against PHBPU” value was 100. Besides, the “Pre-emergence action against ABUTH (herbicidal activity)” value in the assay with ABUTH [4] is recorded as 100%. The “SETVI (Table B8, pre-emergence herbicidal activity)” value in the assay with SETVI [5] is reported as 100%. The “Pre-emergence action against VIOTR” value in the assay on VIOTR [6] is on record as 100%. In addition, the “Post-emergence action against AMARE (herbicidal action in percent)” value with AMARE [7] worked out at 90%. Moreover, the “Pre-emergence action against AMARE (herbicidal activity)” value in the assay on AMARE [8] turned out to be 100%. For the same compound, in the assay with VERPE [9], the “Pre-emergence action against VERPE” value was 100%. Further, the “Post-emergence action against POLCO” value with POLCO [10] stood at 80. In addition, the “Pre-emergence action against CYPES (herbicidal activity)” value in the assay on CYPES [11] is listed as 100%. In addition, the “Post-emergence action against CYPES (herbicidal action in percent)” value in the assay with CYPES [12] came to 100%. For the same compound, the “Post-emergence action against STEME” value with STEME [13] is given as 100. The “Post-emergence action against MATIN (herbicidal action in percent)” value in the assay on MATIN [14] came out at 100%. In addition, the “Post-emergence action against VIOTR” value with VIOTR [15] came out at 100. In addition, in the assay with ECHCG [16], the “Pre-emergence action against ECHCG (herbicidal activity)” value is listed as 100%. Moreover, in the assay on SETVI [17], the “Post-emergence action against SETVI (herbicidal action in percent)” value is 80%. Also, the “Post-emergence action against ABUTH (herbicidal action in percent)” value with ABUTH [18] was found to be 100%. In addition, the “Pre-emergence action against STEME” value with STEME [19] is 90%. The “Pre-emergence action against POLCO” value with POLCO [20] amounted to 90%.
As for `CCC(=O)c1c(Cl)ccc(C(=O)Nc2nnnn2CC)c1Cl` [2-115], the “Pre-emergence action against MATIN” value in the assay on MATIN [1] was determined as 100%. In addition, in the assay with ECHCG [2], the “Post-emergence action against ECHCG (herbicidal action in percent)” value stood at 90%. The “Pre-emergence action against LOLMU (herbicidal activity)” value in the assay on LOLMU came to 100%. Further, the “Pre-emergence action against ALOMY (herbicidal activity in percent)” value in the assay with ALOMY came to 100%. Also, in the assay on PHBPU, the “Post-emergence action against PHBPU” value is 90. Moreover, the “Pre-emergence action against ABUTH (herbicidal activity)” value with ABUTH [4] amounted to 100%. The “SETVI (Table B8, pre-emergence herbicidal activity)” value with SETVI [5] came out at 90%. Further, the “Pre-emergence action against VIOTR” value in the assay with VIOTR [6] stood at 100%. Besides, the “Pre-emergence action against AVEFA (herbicidal activity)” value in the assay on AVEFA is listed as 90%. For the same compound, in the assay with AMARE [7], the “Post-emergence action against AMARE (herbicidal action in percent)” value is given as 90%. In the assay on AMARE [8], the “Pre-emergence action against AMARE (herbicidal activity)” value was found to be 100%. Moreover, in the assay on VERPE [9], the “Pre-emergence action against VERPE” value is 90%. Moreover, in the assay with POLCO [10], the “Post-emergence action against POLCO” value was 100. Further, the “Pre-emergence action against CYPES (herbicidal activity)” value in the assay on CYPES [11] is recorded as 90%. Moreover, the “Post-emergence action against CYPES (herbicidal action in percent)” value in the assay on CYPES [12] turned out to be 80%. Besides, the “Post-emergence action against STEME” value with STEME [13] came to 100. In addition, the “Post-emergence action against MATIN (herbicidal action in percent)” value with MATIN [14] is 100%. The “Post-emergence action against VIOTR” value in the assay with VIOTR [15] is given as 100. Moreover, in the assay on ECHCG [16], the “Pre-emergence action against ECHCG (herbicidal activity)” value came out at 100%. Besides, in the assay on SETVI [17], the “Post-emergence action against SETVI (herbicidal action in percent)” value was 90%. Further, in the assay with ABUTH [18], the “Post-emergence action against ABUTH (herbicidal action in percent)” value stood at 90%. Also, the “Pre-emergence action against STEME” value in the assay on STEME [19] is 100%. Besides, the “Pre-emergence action against POLCO” value in the assay on POLCO [20] was found to be 80%.

Source of the values: patent publication US11051515B2, “3-acyl-benzamides and their use as herbicides” (Bayer Aktiengesellschaft, priority 2017, dated 2021).
